Results published in patent US9199914B2, “Multiple substituted fluoromethanes as selective and bioactive isosteres” (MEH ASSOCIATES, INC., priority 2010, dated 2015).
Converted amounts (≈) assume the structure as drawn. Like-named read-outs stand apart in the source and are kept apart here.

Experiments:
Format in all cases: cell-based
[1] = test system: L. donovani MHOM-ET-67/L82, axenic amastigotes; test: In vitro sensitivity assay: axenic Leishmania donovani (Resazurin)
[2] = test system: Trypanosoma brucei rhodesiense; STIB 900; test: microbe, parasite or virus in culture
[3] = test system: L-6 (rat skeletal myoblast cells); test: cells
Plasmodium falciparum K1 = test: microbe, parasite or virus in culture
[4] = test system: T. cruzi Tulahuen C2C4, containing the Lac Z gene; test: In vitro sensitivity assay: T. cruzi (Lac Z / CPRG, in L-6 cells); settings: Trypanosoma cruzi, L6; Tulahuen C4, amastigotes in L-6 cells
[5] = MHOM-ET-67/L82, amastigotes, 72 hours, read-out: IC50 Values L. donovani

Q: What does the source list for `CCCCCCCCCCCCCCCCOP(=O)([O-])OCC[N+](C)(C)C` [miltefosine]?
A: IC50 [1, 5]: 0.178 µg/mL (≈ 0.437 µM); IC50 ([1]; standard drug, protocol value, read-out: average IC50): 0.131 µg/mL (≈ 0.321 µM)

Q: Which IC50 ([2]; 72 h, read-out: IC50 Values T.b. rhodensiense) does the source give for `Nc1nc(N)nc(Nc2ccc([As]3SCC(CO)S3)cc2)n1` (stereo not shown) [melarsoprol] here?
A: 0.003 µg/mL

Q: And the IC50 ([2]; read-out: average IC50)?
A: 0.004 µg/mL

Q: Which results are given for `COc1cc([C@@H]2c3cc4c(cc3[C@H](O)[C@H]3COC(=O)[C@H]23)OCO4)cc(OC)c1OC` [podophyllotoxin]?
A: IC50 ([3]; L6, read-out: IC50 Values Cytoxicity): 0.007 µg/mL (≈ 0.0169 µM); IC50 ([3]; Myoblast, read-out: average IC50): 0.006 µg/mL (≈ 0.0145 µM)

Q: What does the source list for `CCN(CC)CCCC(C)Nc1ccnc2cc(Cl)ccc12` (stereo not shown) [chloroquinine, Chloroquine]?
A: IC50 (Plasmodium falciparum K1; K1, read-out: IC50 Values P. falciparum): 0.059 µg/mL (≈ 0.184 µM); IC50 (Plasmodium falciparum K1; K1, read-out: average IC50): 0.065 µg/mL (≈ 0.203 µM)

Q: `O=C(O)CNCCC(F)(F)F` [MEH-002, (3,3,3-Trifluoro-propylamino)-acetic acid] was tested. Which IC50 ([2]; STIB 900, trypomastigotes, 72 h, read-out: IC50 Values T.b. rhodensiense) did it give?
A: 10.3 µg/mL (≈ 60.2 µM)

Q: And the IC50 [4]?
A: > 90 µg/mL

Q: And the IC50 [1, 5]?
A: > 90 µg/mL

Q: And the IC50 (Plasmodium falciparum K1; K1, IEF, read-out: IC50 Values P. falciparum)?
A: > 5 µg/mL

Q: What about the IC50 ([3]; L6 cells, read-out: IC50 Values Cytoxicity) of the same molecule?
A: > 90 µg/mL
